{
  "source": "ChEMBL document CHEMBL1146892",
  "about": "“Pyrrolidine bis-cyclic guanidines with antimicrobial activity against drug-resistant Gram-positive pathogens identified from a mixture-based combinatorial library” (2006)",
  "format_in_all_cases": "functional",
  "key": {"Staphylococcus aureus": {"test_system": "Staphylococcus aureus", "test": "Antibacterial activity against methicillin-resistant Staphylococcus aureus ATCC 33591"}, "Enterococcus faecalis": {"test_system": "Enterococcus faecalis", "test": "Antibacterial activity against vancomycin-resistant Enterococcus faecalis ATCC 51299"}, "Escherichia coli": {"test_system": "Escherichia coli", "test": "Antibacterial activity against Escherichia coli ATCC 25922"}},
  "data": [
    {"smiles": "C[C@H]1CN=C(N)N1CC1CCCN1C[C@@H](CC1CCCCC1)N1C[C@@H](CC2CCCCC2)N(CCc2cc(C(F)(F)F)cc(C(F)(F)F)c2)C1=N", "note": "(some centres not stated)", "values": [
      {"measurement": "MBC", "setting": "Staphylococcus aureus", "result": 2.5, "unit": "µg/mL"},
      {"measurement": "MIC", "setting": "Staphylococcus aureus", "result": "< 2.5", "unit": "µg/mL"},
      {"measurement": "MBC", "setting": "Enterococcus faecalis", "result": "> 10", "unit": "µg/mL"},
      {"measurement": "MIC", "setting": "Enterococcus faecalis", "result": "< 2.5", "unit": "µg/mL"},
      {"measurement": "MBC", "setting": "Escherichia coli", "result": 5, "unit": "µg/mL"},
      {"measurement": "MIC", "setting": "Escherichia coli", "result": 5, "unit": "µg/mL"}
    ]},
    {"smiles": "CCCC[C@@H]1CN([C@H](Cc2ccc3ccccc3c2)CN2CCCC2CN2C(N)=NC[C@@H]2Cc2ccccc2)C(=N)N1CC(C)c1ccc(CC(C)C)cc1", "note": "(some centres not stated)", "values": [
      {"measurement": "MBC", "setting": "Staphylococcus aureus", "result": 2.5, "unit": "µg/mL"},
      {"measurement": "MIC", "setting": "Staphylococcus aureus", "result": "< 2.5", "unit": "µg/mL"},
      {"measurement": "MBC", "setting": "Enterococcus faecalis", "result": "> 10", "unit": "µg/mL"},
      {"measurement": "MIC", "setting": "Enterococcus faecalis", "result": "< 2.5", "unit": "µg/mL"},
      {"measurement": "MBC", "setting": "Escherichia coli", "result": "> 10", "unit": "µg/mL"},
      {"measurement": "MIC", "setting": "Escherichia coli", "result": "> 10", "unit": "µg/mL"}
    ]}
  ]
}
